Data as given in patent US8183371B2, “Pyrazines as delta opioid receptor modulators” (Janssen Pharmaceutica NV, priority 2009, dated 2012).
Where two headings read alike, the source gives them in different places.

Legend:
[1] = biological target: T1, delta opioid receptor (Rattus norvegicus, UniProt P33533); assay: Rat brain delta opioid receptor binding assay
T1 construct: from tissue; host or cells: forebrain of male Wistar rats
Protocol: Procedure: Male, Wistar rats (150-250 g, VAF, Charles River, Kingston, N.Y.) were killed by CO2, and their brains were removed and placed immediately in ice cold Tris HCl buffer (50 mM, pH 7.4). The forebrains were separated from the remainder of the brain by a coronal transection, beginning dorsally at the colliculi and passing ventrally through the midbrain-pontine junction. After dissection, the forebrains were homogenized in Tris buffer in a Teflon®-glass homogenizer. The homogenate was diluted to a concentration of 1 g of forebrain tissue per 80 mL Tris and centrifuged at 39,000×g for 10 min. The pellet was resuspended in the same volume of Tris buffer containing 5 mM MgCl2 with several brief pulses from a Polytron homogenizer. This particulate preparation was used for the delta opioid binding assays. Following incubation with the delta selective peptide ligand ˜4 nM [^3H]DPDPE or 0.25 nM [^3H]naltrindole at 25° C. for 2.5 h in a 96-well plate with total volume of 1 mL, the plate contents were filtered through Wallac filtermat B sheets on a Tomtec 96-well harvester. The filters were rinsed three times with 2 mL of 10 mM HEPES (pH 7.4), and dried in a 650 W microwave oven for 1.75 min twice. To each sample area 2×50 μL of Betaplate Scint scintillation fluid (LKB) was added and the radioactivity was quantified on a LKB (Wallac) 1205 BetaPlate liquid scintillation counter.
Analysis: The data from the scintillation counter were used to calculate either the % inhibition compared to control binding (when only a single concentration of test compound was evaluated) or a Ki value (when a range of concentrations was tested). Percent inhibition was calculated as: [(total dpm−test compound dpm)/(total dpm−nonspecific dpm)]*100. Kd and Ki values were calculated using GraphPad PRISM data analysis program.

[2] = biological target: T2, δ-opioid receptor (Mus musculus, UniProt P32300); assay: [35S]GTPγS binding assay in NG108-15 cell membranes (delta opioid functional assay); format: biochemical; settings: for EC50: read-out: GTPγS δ-opioid receptor EC50; for GTPγS δ-RelEfficacy @200 nM: 200 nM compound, relative to calculated max of SNC80 dose response
T2 construct: NG108-15 cell membranes were purchased from Applied Cell Sciences (Rockville, Md.); host or cells: NG108-15 cell membranes (purchased)
Protocol: Methods: NG108-15 cell membranes were purchased from Applied Cell Sciences (Rockville, Md.). 5 mg/mL of membrane protein was suspended in 10 mM TRIS-HCl pH 7.2, 2 mM EDTA, 10% sucrose. Membranes were maintained at 4-8° C. A 1 mL volume of membranes was added into 10 mL cold binding assay buffer. The assay buffer contained 50 mM Tris, pH 7.6, 5 mM MgCl2, 100 mM NaCl, 1 mM DTT and 1 mM EGTA. The membrane suspension was homogenized twice with a Polytron, and centrifuged at 3000 rpm for 10 min. The supernatant was then centrifuged at 18,000 rpm for 20 min. Ten mL of assay buffer was added into the pellet containing tube. The pellet and buffer were mixed with a Polytron.
Incubation procedure: The pellet membranes (75 μg/mL) were preincubated with SPA beads (10 mg/mL) at 25° C. for 45 min in the assay buffer. The SPA beads (5 mg/mL) coupled with membranes (37.5 μg/mL) were then incubated with 0.1 nM [^35S]GTPγS in the same Tris buffer containing 100 μM GDP in total volume of 200 μL. 200 nM of receptor agonists was used to stimulate [^35S]-GTPγS binding. The basal binding was tested in the absence of agonists and non-specific binding was tested in the presence of 10 μM unlabeled GTPγS.
Data % of Basal=(stimulated−non specific)*100/(basal−non specific). Relative Efficacy of a compound at 200 nM=(% of Basal of test compound at 200 nM)/(Calculated Max of SNC80 dose response. Curve in prism).

[3] = rat forebrain membranes, ~4 nM [3H]DPDPE, read-out: δ-binding (DPDPE ligand) Ki
[4] = [3H]naltrindole ligand, read-out: δ-binding (Naltrindole ligand) Ki

T1 sequence (P33533 whole entry): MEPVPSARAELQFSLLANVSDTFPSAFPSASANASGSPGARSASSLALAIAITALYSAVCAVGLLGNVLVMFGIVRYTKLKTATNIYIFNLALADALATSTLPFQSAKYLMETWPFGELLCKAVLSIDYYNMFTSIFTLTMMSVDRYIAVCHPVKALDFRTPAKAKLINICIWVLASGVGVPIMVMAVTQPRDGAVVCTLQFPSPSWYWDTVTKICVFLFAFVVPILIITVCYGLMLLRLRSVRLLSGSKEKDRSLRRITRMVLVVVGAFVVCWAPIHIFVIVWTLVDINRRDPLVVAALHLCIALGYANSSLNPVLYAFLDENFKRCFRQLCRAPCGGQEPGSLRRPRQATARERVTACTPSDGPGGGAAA
T2 sequence (P32300 whole entry): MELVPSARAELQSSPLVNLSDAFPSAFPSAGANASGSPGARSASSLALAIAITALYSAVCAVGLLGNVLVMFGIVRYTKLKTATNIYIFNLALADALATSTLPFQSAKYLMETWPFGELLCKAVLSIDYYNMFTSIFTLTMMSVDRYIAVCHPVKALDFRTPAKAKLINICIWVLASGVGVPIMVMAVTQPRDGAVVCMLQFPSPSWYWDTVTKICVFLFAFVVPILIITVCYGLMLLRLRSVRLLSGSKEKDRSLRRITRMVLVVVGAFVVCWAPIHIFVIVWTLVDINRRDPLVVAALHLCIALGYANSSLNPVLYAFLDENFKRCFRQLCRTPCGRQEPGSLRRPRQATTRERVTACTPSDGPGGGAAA

| SMILES | Ki [1, 3] [nM] | GTPγS δ-opioid receptor Rel Efficacy [2] | EC50 [2] [nM] | Ki [1, 4] [nM] | GTPγS δ-RelEfficacy @200 nM [2] | Ki [1] [nM] |
| --- | --- | --- | --- | --- | --- | --- |
| COc1ccc(Oc2nc(-c3cncnc3)cnc2NC[C@@H]2CCCN2)cc1 [Cpd 5] | 2.7 | 1.0984 | 349 |  |  |  |
| CCc1ccc(Oc2nc(-c3cncnc3)cnc2NC[C@@H]2CCCN2)cc1 [Cpd 6] | 32.3 | 1.1553 | 460 |  |  |  |
| c1ncc(-c2cnc(NC[C@@H]3CCCN3)c(Oc3ccc4c(c3)OCO4)n2)cn1 [Cpd 7] | 491 |  |  |  |  |  |
| COc1ccc(Oc2nc(-c3cncnc3)cnc2NC[C@@H]2CCCN2)c(F)c1 [Cpd 9] | 1.2 | 1.1022 | 281 |  |  |  |
| Clc1ccc(Oc2nc(-c3cncnc3)cnc2NC[C@@H]2CCCN2)cc1 [Cpd 10] |  |  |  | 1.1 | 0.2150 |  |
| Clc1cccc(Oc2nc(-c3cncnc3)cnc2NC[C@@H]2CCCN2)c1 [Cpd 11] |  |  |  | 1.8 | 0.2102 |  |
| Clc1ccccc1Oc1nc(-c2cncnc2)cnc1NC[C@@H]1CCCN1 [Cpd 12, [3-(2-Chloro-phenoxy)-5-pyrimidin-5-yl-pyrazin-2-yl]-pyrrolidin-2-(S)-ylmethyl-amine] |  |  |  | 0.7 | 0.2356 |  |
| CC(=O)Nc1cccc(Oc2nc(-c3cncnc3)cnc2NC[C@@H]2CCCN2)c1 [Cpd 13] |  |  |  | 4 | 0.0800 |  |
| c1cn(-c2ccc(Oc3nc(-c4cncnc4)cnc3NC[C@@H]3CCCN3)cc2)cn1 [Cpd 14] |  |  |  | 411 |  |  |
| Oc1cccc(Oc2nc(-c3cncnc3)cnc2NC[C@@H]2CCCN2)c1 [Cpd 15, 3-{6-Pyrimidin-5-yl-3-[(pyrrolidin-2-(S)-ylmethyl)-amino]-pyrazin-2-yloxy}-phenol] |  |  |  | 0.4 |  |  |
| COc1ccc(Cc2nc(-c3cccnc3)cnc2NC[C@@H]2CCCN2)cc1 [Cpd 16] |  | 0.3985 | 7320 | 15 |  |  |
| COc1ccc(Cc2nc(-c3cncnc3)cnc2NC[C@@H]2CCCN2)cc1 [Cpd 17, [3-(4-Methoxy-benzyl)-5-pyrimidin-5-yl-pyrazin-2-yl]-pyrrolidin-2-(S)-ylmethyl-amine] |  |  |  | 19.9 | 0.1065 |  |
| N#Cc1ccc(Oc2nc(-c3cncnc3)cnc2NC[C@@H]2CCCN2)cc1 [Cpd 18] |  |  |  | 76.4 | 0.1065 |  |
| COc1ccc(Oc2nc(-c3cncc(C#N)c3)cnc2NC[C@H](C)N)cc1 [Cpd 19] |  |  |  | 0.3 |  |  |
| COc1ccc(Oc2nc(-c3cncnc3)cnc2NC[C@H](C)N)cc1 [Cpd 20] |  | 1.0287 | 50.5 | 0.6 | 0.6890 |  |
| COc1ccc(Oc2nc(-c3cncc(C#N)c3)cnc2NCC2(N)CCCC2)cc1 [Cpd 21] |  |  |  | 0.6 | 0.2481 |  |
| COc1ccc(Oc2nc(-c3cncnc3)cnc2NCC2(N)CCCC2)cc1 [Cpd 22] |  |  |  | 2.9 | 0.2384 |  |
| COc1ccc(Cc2nc(-c3cncc(C#N)c3)cnc2NC[C@@H]2CCCN2)cc1 [Cpd 23] |  |  |  | 2.4 | 0.1174 |  |
| COc1ccc(Oc2nc(-c3cncc(C#N)c3)cnc2NC[C@@H]2CCCN2)cc1 [Cpd 24] |  |  |  | 0.2 | 0.1669 |  |
| c1ncc(-c2cnc(NC[C@@H]3CCCN3)c(Oc3ccc4c(c3)CCO4)n2)cn1 [Cpd 33] |  |  |  | 4.3 |  |  |
| COc1ccc(Oc2nc(-c3cncc(C#N)c3)cnc2N[C@H]2CC[C@H](N)CC2)cc1 [Cpd 34] |  |  |  |  |  | 0.7 |
| N#Cc1cncc(-c2cnc(NC[C@@H]3CCCN3)c(Oc3ccc4[nH]ccc4c3)n2)c1 [Cpd 40] |  | 1.1190 | 39.3 |  | 0.6606 |  |
| N#Cc1cncc(-c2cnc(NC[C@@H]3CCCN3)c(Oc3ccccc3Cl)n2)c1 [Cpd 41] |  | 1.2922 | 298 |  | 0.3049 |  |
| N#Cc1cncc(-c2cnc(NC[C@@H]3CCCN3)c(Oc3cccc(Cl)c3)n2)c1 [Cpd 42] |  | 1.1894 | 84.4 |  | 0.7111 |  |
